From patent US12637445B2, “KIF18A inhibitors” (AMGEN INC., priority 2019, dated 2026) come the findings set out here.

The target of this test is T1, Recombinant human KIF18A (1-467 His-tagged) protein (Homo sapiens, UniProt Q8NI77).
T1 construct: Recombinant human KIF18A (1-467 His-tagged) protein; His
T1 sequence (Q8NI77 1-467): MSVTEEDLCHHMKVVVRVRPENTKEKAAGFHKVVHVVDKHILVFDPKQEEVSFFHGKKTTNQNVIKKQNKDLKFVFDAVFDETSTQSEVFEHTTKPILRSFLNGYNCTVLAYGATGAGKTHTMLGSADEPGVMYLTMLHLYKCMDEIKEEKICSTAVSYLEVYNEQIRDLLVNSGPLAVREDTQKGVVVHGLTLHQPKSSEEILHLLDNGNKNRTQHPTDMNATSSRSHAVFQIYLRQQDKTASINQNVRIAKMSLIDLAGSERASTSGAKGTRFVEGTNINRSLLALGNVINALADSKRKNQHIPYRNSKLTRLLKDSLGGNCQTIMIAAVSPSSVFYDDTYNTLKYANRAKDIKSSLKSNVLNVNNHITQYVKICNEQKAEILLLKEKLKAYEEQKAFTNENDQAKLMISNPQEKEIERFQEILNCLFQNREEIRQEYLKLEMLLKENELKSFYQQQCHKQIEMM
T1 sequence (P02550 whole entry partner): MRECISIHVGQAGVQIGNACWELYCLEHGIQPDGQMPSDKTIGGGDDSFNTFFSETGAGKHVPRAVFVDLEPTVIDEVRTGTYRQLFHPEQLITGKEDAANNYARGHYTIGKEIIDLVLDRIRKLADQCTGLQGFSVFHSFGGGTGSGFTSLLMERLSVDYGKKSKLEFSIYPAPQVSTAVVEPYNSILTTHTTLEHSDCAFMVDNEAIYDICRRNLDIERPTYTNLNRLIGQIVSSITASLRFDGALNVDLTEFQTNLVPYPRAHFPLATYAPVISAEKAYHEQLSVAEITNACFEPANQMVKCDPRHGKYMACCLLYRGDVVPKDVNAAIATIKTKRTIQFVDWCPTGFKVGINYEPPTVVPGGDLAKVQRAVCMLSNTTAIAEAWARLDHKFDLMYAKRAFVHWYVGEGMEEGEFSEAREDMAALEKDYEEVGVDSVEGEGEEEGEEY
T1 sequence (P02554 whole entry partner): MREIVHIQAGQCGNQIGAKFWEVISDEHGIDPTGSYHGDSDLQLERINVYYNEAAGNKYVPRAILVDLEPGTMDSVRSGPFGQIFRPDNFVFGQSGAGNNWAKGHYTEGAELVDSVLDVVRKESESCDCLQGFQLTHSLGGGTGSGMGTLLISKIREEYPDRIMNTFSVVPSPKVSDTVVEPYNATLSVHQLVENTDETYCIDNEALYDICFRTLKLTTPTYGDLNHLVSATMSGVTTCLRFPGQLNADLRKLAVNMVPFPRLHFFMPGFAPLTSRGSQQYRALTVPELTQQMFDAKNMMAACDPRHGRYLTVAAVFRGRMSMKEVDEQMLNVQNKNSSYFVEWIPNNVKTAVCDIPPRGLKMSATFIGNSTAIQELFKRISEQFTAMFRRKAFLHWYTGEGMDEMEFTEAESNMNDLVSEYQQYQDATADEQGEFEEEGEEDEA
Kind of test: KIF18A Enzyme Assay (microtubule-stimulated ATPase activity, ADP-Glo). The note with it: 30 nM KIF18A, 30 μg/mL pig microtubules, 75 μM ATP, ADP-Glo luminescence. It counts as biochemical. From the text:
KIF18A Enzyme Assay: Microtubule-stimulated ATPase activity assay is used to measure KIF18A enzyme activity after treatment with compound. Compounds were 2-fold serially diluted in DMSO (Sigma Inc) over 22-point concentration range. Recombinant human KIF18A (1-467 His-tagged) protein was expressed using a baculovirus system and purified by affinity chromatography by Amgen Inc. Concentrations of KIF18A protein, microtubules (MT), and ATP in the reaction were optimized for standardized homogenous enzyme assay using ADP-Glo™ Kinase/ATPase Assay Kit (Promega Inc). The assay measures ADP formed from the ATPase reaction. Prepare reaction buffer [(15 mM Tris, pH 7.5 (Teknova Inc), 10 mM MgCl2 (IT Baker Inc), 0.01% Pluronic F-68 (Life Technologies Inc), 1 μM Taxol (Cytoskeleton Inc), and 30 μg/mL pig microtubules (Cytoskeleton Inc)]. Add compound and KIF18A protein (30 nM) to prepared reaction buffer and incubated for 15 minutes at room temperature, next add ATP (at Kin, 75 μM) to the reaction mixture and incubated for an additional 15 minutes at room temperature. Mix 5 μl of ADP-Glor™ Reagent and 2.5 μl of the reaction mixture and incubate for 40 minutes at room temperature. Add 10 μl ADP-Glorh Detection Reagent and incubate for 40 minutes at room temperature. Read luminescence using EnVision microplate reader with ultra-luminescence module (Perkin Elmer Inc). Concentration-response curve-fitting and IC50 determination was performed using Genedata Screener Software (Standard 15.0.1, Genedata Inc) with a four-parameter logistic regression fit model.
For the compound `Cc1cc(Nc2ncnc3cc([S@](=N)(=O)C4CC4)cc(N4CCC5(CC4)CC5)c23)cc(N2CCC(F)(F)CC2)c1` (single isomer, unassigned) [Example 102-1], the IC50 was found to be 73 nM.
With `Cc1cc(Nc2ncnc3cc([S@@](=N)(=O)C4CC4)cc(N4CCC5(CC4)CC5)c23)cc(N2CCC(F)(F)CC2)c1` (single isomer, unassigned) [Example 102-2], the IC50 amounted to 262 nM.
As for `Cc1cc(Nc2ncnc3cc(NS(=O)(=O)CCO)cc(N4CCC5(CC4)CC5)c23)cc(N2CCC(F)(F)CC2)c1` [Example 100, N-(4-((3-(4,4-Difluoropiperidin-1-yl)-5-methylphenyl)amino)-5-(6-azaspiro[2.5]octan-6-yl)quinazolin-7-yl)-2-hydroxyethane-1-sulfonamide], the IC50 amounted to 49 nM.
For the compound `Cc1cc(Nc2nc(C)nc3cc(NS(=O)(=O)CCO)cc(N4CCC5(CC4)CC5)c23)cc(N2CCC(F)(F)CC2)c1` [Example 100-1, N-(4-((3-(4,4-Difluoropiperidin-1-yl)-5-methylphenyl)amino)-2-methyl-5-(6-azaspiro[2.5]octan-6-yl)quinazolin-7-yl)-2-hydroxyethane-1-sulfonamide], the IC50 was determined as 955 nM.
As for `Cc1cc(Nc2ncnc3cc(S(C)(=O)=O)cc(N4CCC5(CC4)CC5)c23)cc(N2CCC(F)(F)CC2)c1` [Example 101, N-(3-(4,4-Difluoropiperidin-1-yl)-5-methylphenyl)-7-(methylsulfonyl)-5-(6-azaspiro[2.5]octan-6-yl)quinazolin-4-amine], the IC50 stood at 940 nM.
Consider `Cc1cc(Nc2ncnc3cccc(N4CCC5(CC4)CC5)c23)cc(N2CCC(F)(F)CC2)c1` [Example 101-1, N-(3-(4,4-Difluoropiperidin-1-yl)-5-methylphenyl)-5-(6-azaspiro[2.5]octan-6-yl)quinazolin-4-amine], for which the IC50 is 3340 nM.
Regarding `Cc1cc(Nc2ncnc3cc(NS(=O)(=O)CCO)cc(N4CCC5(CC4)CC5)c23)cc(OCCC(F)(F)F)c1` [Example 103, 2-Hydroxy-N-(4-((3-methyl-5-(3,3,3-trifluoropropoxy)phenyl)amino)-5-(6-azaspiro[2.5]octan-6-yl)quinazolin-7-yl)ethane-1-sulfonamide], the IC50 turned out to be 175 nM.
Next, `Cc1cc(C)cc(Nc2ncnc3cc(NS(=O)(=O)CCO)cc(N4CCC5(CC4)CC5)c23)c1` [Example 103-1, N-(4-((3,5-Dimethylphenyl)amino)-5-(6-azaspiro[2.5]octan-6-yl)quinazolin-7-yl)-2-hydroxyethane-1-sulfonamide]: 403 nM; `O=S(=O)(CCO)Nc1cc(N2CCC3(CC2)CC3)c2c(Nc3cccc(OCCC(F)(F)F)c3)ncnc2c1` [Example 103-2, N-(5-(6-Azaspiro[2.5]octan-6-yl)-4-((3-(3,3,3-trifluoropropoxy)phenyl)amino)quinazolin-7-yl)-2-hydroxyethane-1-sulfonamide]: 61 nM.
In the case of `Cc1cc(Nc2ncnc3cc(NS(=O)(=O)CCO)cc(N4CCC5(CC4)CC5)c23)nc(N2CCC(F)(F)CC2)n1` [Example 104, N-(4-((2-(4,4-Difluoropiperidin-1-yl)-6-methylpyrimidin-4-yl)amino)-5-(6-azaspiro[2.5]octan-6-yl)quinazolin-7-yl)-2-hydroxyethane-1-sulfonamide] it was 129 nM.
`Cc1cc(Nc2ncnc3cc(NS(=O)(=O)CCO)cc(N4CCC5(CC4)CC5)c23)cc(N2CCC(F)(F)CC2)n1` [Example 105, N-(4-((2-(4,4-Difluoropiperidin-1-yl)-6-methylpyridin-4-yl)amino)-5-(6-azaspiro[2.5]octan-6-yl)quinazolin-7-yl)-2-hydroxyethane-1-sulfonamide]: the 50% inhibitory concentration (IC50) was found to be 82 nM.
For the compound `Cc1cc(Nc2ncnc3cc(NS(=O)(=O)CCO)cc(N4CCC5(CC4)CC5)c23)nc(N2CCC(F)(F)CC2)c1` [Example 105-1, N-(4-((6-(4,4-Difluoropiperidin-1-yl)-4-methylpyridin-2-yl)amino)-5-(6-azaspiro[2.5]octan-6-yl)quinazolin-7-yl)-2-hydroxyethane-1-sulfonamide], the IC50 was found to be 78 nM.
With `Cc1cc(Oc2ncnc3cc(NS(=O)(=O)CCO)cc(N4CCC5(CC4)CC5)c23)cc(N2CCC(F)(F)CC2)c1` [Example 105-2, N-(4-(3-(4,4-Difluoropiperidin-1-yl)-5-methylphenoxy)-5-(6-azaspiro[2.5]octan-6-yl)quinazolin-7-yl)-2-hydroxyethane-1-sulfonamide], the IC50 worked out at 2840 nM.
Next, `Cc1cc(Nc2nncc3cc(NS(=O)(=O)CCO)cc(N4CCC5(CC4)CC5)c23)cc(N2CCC(F)(F)CC2)c1` [Example 106, N-(1-((3-(4,4-Difluoropiperidin-1-yl)-5-methylphenyl)amino)-8-(6-azaspiro[2.5]octan-6-yl)phthalazin-6-yl)-2-hydroxyethane-1-sulfonamide]: 25 nM.
